# Tested on: HCV replicon
# Assay: Cell-Based HCV Replicon Assay
# Conditions: Hepatitis C virus, 72 h, read-out: EC90 (uM) range
# Experimental: Cell-Based HCV Replicon Assay
# To measure cell-based anti-HCV activity of the compounds of the present invention, replicon cells were seeded at 5000 cells/well in 96-well collagen I-coated Nunc plates in the presence of the compound of the invention. Various concentrations of a compound of the invention, typically in 10 serial 2-fold dilutions, were added to the assay mixture, the starting concentration of the compound ranging from 25 μM to 1 μM. The final concentration of DMSO was 0.5%, fetal bovine serum was 10%, in the assay media. Cells were harvested on day 3 by the addition of 1× cell lysis buffer (Ambion cat #8721). The replicon RNA level was measured using real time PCR (Taqman assay). The amplicon was located in 5B. The PCR primers were: 5B.2F, ATGGACAGGCGCCCTGA; 5B.2R, […]; the probe sequence was FAM-labeled CACGCCATGCGCTGCGG. GAPDH RNA was used as endogenous control and was amplified in the same reaction as NS5B (multiplex PCR) using primers and VIC-labeled probe recommended by the manufacturer (PE Applied Biosystem). The real-time RT-PCR reactions were run on ABI PRISM® 7900HT Sequence Detection System using the following program: 48′C for 30 min, 95′C for 10 min, 40 cycles of 95′C for 15 sec, 60′C for 1 min. The ΔCT values (CT5B-CTGAPDH) were plotted against the concentration of test compound and fitted to the sigmoid dose-response model using Graph Pad PRISM® software. EC50 was defined as the concentration of inhibitor necessary to achieve ΔCT=1 over the projected baseline; EC90 the concentration necessary to achieve ΔCT=3.2 over the baseline. Alternatively, to quantitate the absolute amount of replicon RNA, a standard curve was established by including serially diluted T7 transcripts of replicon RNA in the Taqman assay. All Taqman reagents were from PE Applied Biosystems. Such an assay procedure was described in detail in e.g. Malcolm et al., Antimicrobial Agents and Chemotherapy 50: 1013-1020 (2006).
# HCV Replicon assay data for compounds of the invention that were tested were obtained using the above method.
row,SMILES,EC90
1,Cc1nccc2sc(-c3cnc(N[C@H](C)C4CCC4)nc3N[C@@H]3C[C@H](CO)[C@@H](O)[C@H]3O)nc12 [Example 4915],> 1 µM

# Same assay, conditions: Hepatitis C virus, 72 h; Table IV; replicon cells, day 3, real time PCR; EC90 = concentration for ΔCT=3.2 over baseline; read-out: EC90
row,SMILES,EC90
1,Cc1nc(NCc2c(F)cccc2F)nc(N[C@@H]2C[C@H](C(C)(C)O)[C@@H](O)[C@H]2O)c1-c1nc2c(N)nccc2s1 [Example 4443],0.055 µM
2,Cc1nc(NC[C@H]2C[C@@H](c3ccccc3)C2)nc(N[C@@H]2C[C@H](CO)[C@@H](O)[C@H]2O)c1-c1nc2cnccc2s1 [Example 4512],0.019 µM
3,Cc1nc(NC[C@H]2C[C@H](c3ccccc3)C2)nc(N[C@@H]2C[C@H](CO)[C@@H](O)[C@H]2O)c1-c1nc2cnccc2s1 [Example 4513],0.016 µM
4,CCc1cc2sc(-c3c(C)nc(NCC(F)(F)F)nc3N[C@@H]3C[C@H](CO)[C@@H](O)[C@H]3O)nc2c(CC)n1 [Example 4706],0.045 µM

# Same assay, conditions: Hepatitis C virus, 72 h; Table V, cells printed as numeric bound instead of code; replicon cells, day 3, real time PCR; read-out: EC90 (uM) range
row,SMILES,EC90
1,C[C@@H](Nc1ncc(-c2nc3c(C4CC4)nccc3s2)c(N[C@@H]2C[C@H](CS(C)(=O)=O)[C@@H](O)[C@H]2O)n1)C1CC1 [Example 4917],> 0.2 µM
2,CS(=O)(=O)C[C@H]1C[C@@H](Nc2nc(NC3CCC3)ncc2-c2nc3c(C4CC4)nccc3s2)[C@H](O)[C@@H]1O [Example 4922],> 0.3 µM

# Same assay, conditions: Hepatitis C virus, 72 h; Table V, class codes; replicon cells, day 3, real time PCR; EC90 = concentration for ΔCT=3.2 over baseline; read-out: EC90 (uM) range
row,SMILES,EC90
1,Cc1nc(NCc2ccccc2F)nc(N[C@@H]2C[C@H](CO)[C@@H](O)[C@H]2O)c1-c1nc2c(C3CC3)nccc2s1 [Example 4901],< 0.5 µM
2,Cc1nc(NCc2cccc(F)c2)nc(N[C@@H]2C[C@H](CO)[C@@H](O)[C@H]2O)c1-c1nc2c(C3CC3)nccc2s1 [Example 4902],< 0.5 µM
3,CO[C@@H]1[C@@H](CO)C[C@@H](Nc2nc(NCC3CC3)nc(C)c2-c2nc3c(C)nccc3s2)[C@@H]1O [Example 4903],< 0.5 µM
4,CO[C@@H]1[C@@H](CO)C[C@@H](Nc2nc(N[C@H](C)c3ccc(OC(F)(F)F)cc3)nc(C)c2-c2nc3c(C)nccc3s2)[C@@H]1O [Example 4904],< 0.5 µM
5,CO[C@@H]1[C@@H](CO)C[C@@H](Nc2nc(NCC(F)(F)F)nc(C)c2-c2nc3c(C)nccc3s2)[C@@H]1O [Example 4905],< 0.5 µM
6,CNc1nc(C)c(-c2nc3c(C)nccc3s2)c(N[C@@H]2C[C@H](CO)[C@@H](OC)[C@H]2O)n1 [Example 4906],0.5 to 5 µM
7,CO[C@@H]1[C@@H](CO)C[C@@H](Nc2nc(N)nc(C)c2-c2nc3c(C)nccc3s2)[C@@H]1O [Example 4907],< 0.5 µM
8,Cc1cc2sc(-c3c(C)nc(NCc4c(F)cccc4F)nc3N[C@@H]3C[C@H](CO)[C@@H](O)[C@H]3O)nc2cn1 [Example 4908],< 0.5 µM
9,Cc1cc2sc(-c3c(C)nc(NCC4CC4)nc3N[C@@H]3C[C@H](CO)[C@@H](O)[C@H]3O)nc2cn1 [Example 4909],< 0.5 µM
10,Cc1cc2sc(-c3c(C)nc(NCC(F)(F)F)nc3N[C@@H]3C[C@H](CO)[C@@H](O)[C@H]3O)nc2cn1 [Example 4910],< 0.5 µM
11,CCOCCNc1nc(C)c(-c2nc3cnc(C)cc3s2)c(N[C@@H]2C[C@H](CO)[C@@H](O)[C@H]2O)n1 [Example 4911],< 0.5 µM
12,Cc1cc2sc(-c3c(C)nc(N[C@H](C)C4CCC4)nc3N[C@@H]3C[C@H](CO)[C@@H](O)[C@H]3O)nc2cn1 [Example 4912],< 0.5 µM
13,Cc1ccc([C@@H](C)Nc2nc(C)c(-c3nc4cnc(C)cc4s3)c(N[C@@H]3C[C@H](CO)[C@@H](O)[C@H]3O)n2)cc1 [Example 4913],< 0.5 µM
14,COCCNc1ncc(-c2nc3c(C4CC4)nccc3s2)c(N[C@@H]2C[C@H](CS(C)(=O)=O)[C@@H](O)[C@H]2O)n1 [Example 4916],0.5 to 5 µM
15,C[C@@H](Nc1ncc(-c2nc3c(C4CC4)nccc3s2)c(N[C@@H]2C[C@H](CS(C)(=O)=O)[C@@H](O)[C@H]2O)n1)C1CCC1 [Example 4918],< 0.5 µM
16,CS(=O)(=O)C[C@H]1C[C@@H](Nc2nc(N)ncc2-c2nc3c(C4CC4)nccc3s2)[C@H](O)[C@@H]1O [Example 4919],< 0.5 µM
17,CS(=O)(=O)C[C@H]1C[C@@H](Nc2nc(NCC3CC3)ncc2-c2nc3c(C4CC4)nccc3s2)[C@H](O)[C@@H]1O [Example 4920],< 0.5 µM
18,C[C@@H](Nc1ncc(-c2nc3c(C4CC4)nccc3s2)c(N[C@@H]2C[C@H](CS(C)(=O)=O)[C@@H](O)[C@H]2O)n1)c1ccc(OC(F)(F)F)cc1 [Example 4921],0.5 to 5 µM
19,Cc1nc(N[C@H](C)C2CC2)nc(N[C@@H]2C[C@H](C(=O)N3CCOCC3)[C@@H](O)[C@H]2O)c1-c1nc2c(C3CC3)nccc2s1 [Example 4923],< 0.5 µM
20,Cc1nc(NCC2CC2)nc(N[C@@H]2C[C@H](C(=O)N3CCOCC3)[C@@H](O)[C@H]2O)c1-c1nc2c(C3CC3)nccc2s1 [Example 4924],< 0.5 µM
21,Cc1nc(N)nc(N[C@@H]2C[C@H](C(=O)N3CCOCC3)[C@@H](O)[C@H]2O)c1-c1nc2c(C3CC3)nccc2s1 [Example 4925],< 0.5 µM
22,COCCNc1nc(C)c(-c2nc3c(C4CC4)nccc3s2)c(N[C@@H]2C[C@H](C(=O)Nc3nccs3)[C@@H](O)[C@H]2O)n1 [Example 4926],< 0.5 µM

row,SMILES,EC90
1,Cc1nc(NCC2CC2)nc(N[C@@H]2C[C@H](C(=O)Nc3nccs3)[C@@H](O)[C@H]2O)c1-c1nc2c(C3CC3)nccc2s1 [Example 4927],< 0.5 µM
2,Cc1nc(N[C@H](C)c2ccc(OC(F)(F)F)cc2)nc(N[C@@H]2C[C@H](C(=O)Nc3nccs3)[C@@H](O)[C@H]2O)c1-c1nc2c(C3CC3)nccc2s1 [Example 4928],< 0.5 µM
3,Cc1nc(N)nc(N[C@@H]2C[C@H](C(=O)NC(C)(C)C)[C@@H](O)[C@H]2O)c1-c1nc2c(C3CC3)nccc2s1 [Example 4929],< 0.5 µM
4,COCCNc1nc(C)c(-c2nc3c(C4CC4)nccc3s2)c(N[C@@H]2C[C@H](C(=O)NC(C)(C)C)[C@@H](O)[C@H]2O)n1 [Example 4930],< 0.5 µM
5,Cc1nc(NCC2CC2)nc(N[C@@H]2C[C@H](C(=O)NC(C)(C)C)[C@@H](O)[C@H]2O)c1-c1nc2c(C3CC3)nccc2s1 [Example 4931],< 0.5 µM
6,Cc1nc(N[C@H](C)c2ccc(F)cc2)nc(N[C@@H]2C[C@H](CO)[C@@H](O)[C@H]2O)c1-c1nc2c(C3CC3)nccc2s1 [Example 4932],< 0.5 µM
7,Cc1cccc([C@@H](C)Nc2nc(C)c(-c3nc4c(C5CC5)nccc4s3)c(N[C@@H]3C[C@H](CO)[C@@H](O)[C@H]3O)n2)c1 [Example 4933],< 0.5 µM
8,Cc1ccccc1[C@@H](C)Nc1nc(C)c(-c2nc3c(C4CC4)nccc3s2)c(N[C@@H]2C[C@H](CO)[C@@H](O)[C@H]2O)n1 [Example 4934],< 0.5 µM
9,Cc1nccc2sc(-c3cnc(NCC4CC4)nc3N[C@@H]3C[C@H](C(C)(C)O)[C@@H](O)[C@H]3O)nc12 [Example 4935],< 0.5 µM
10,CCSCCNc1ncc(-c2nc3c(C)nccc3s2)c(N[C@@H]2C[C@H](C(C)(C)O)[C@@H](O)[C@H]2O)n1 [Example 4936],< 0.5 µM
11,Cc1nccc2sc(-c3cnc(N)nc3N[C@@H]3C[C@H](C(C)(C)O)[C@@H](O)[C@H]3O)nc12 [Example 4937],0.5 to 5 µM
12,COCCNc1ncc(-c2nc3c(C)nccc3s2)c(N[C@@H]2C[C@H](C(C)(C)O)[C@@H](O)[C@H]2O)n1 [Example 4938],< 0.5 µM
13,CO[C@H](C)CNc1ncc(-c2nc3c(C)nccc3s2)c(N[C@@H]2C[C@H](C(C)(C)O)[C@@H](O)[C@H]2O)n1 [Example 4939],< 0.5 µM
14,Cc1nccc2sc(-c3cnc(NCCSC(C)(C)C)nc3N[C@@H]3C[C@H](C(C)(C)O)[C@@H](O)[C@H]3O)nc12 [Example 4940],< 0.5 µM
15,COC[C@@H](C)Nc1ncc(-c2nc3c(C)nccc3s2)c(N[C@@H]2C[C@H](C(C)(C)O)[C@@H](O)[C@H]2O)n1 [Example 4941],< 0.5 µM
16,Cc1nc(NCC2CC2)nc(N[C@@H]2C[C@H](CO)[C@@H](O)[C@H]2O)c1-c1nc2cnc(C3CC3)cc2s1 [Example 4942],< 0.5 µM
17,COCCNc1nc(C)c(-c2nc3cnc(C4CC4)cc3s2)c(N[C@@H]2C[C@H](CO)[C@@H](O)[C@H]2O)n1 [Example 4943],< 0.5 µM
18,Cc1nc(N[C@H](C)c2ccc(OC(F)(F)F)cc2)nc(N[C@@H]2C[C@H](CO)[C@@H](O)[C@H]2O)c1-c1nc2cnc(C3CC3)cc2s1 [Example 4944],< 0.5 µM
19,Cc1nc(N)nc(N[C@@H]2C[C@H](CO)[C@@H](O)[C@H]2O)c1-c1nc2cnc(C3CC3)cc2s1 [Example 4945],< 0.5 µM
20,COCCNc1nc(C)c(-c2nc3cnc(C)cc3s2)c(N[C@@H]2C[C@H](CO)[C@@H](O)[C@H]2O)n1 [Example 4946],< 0.5 µM
21,Cc1nc(N[C@H](C)c2ccc(OC(F)(F)F)cc2)nc(N[C@@H]2C[C@H](C(=O)NC(C)(C)C)[C@@H](O)[C@H]2O)c1-c1nc2c(C3CC3)nccc2s1 [Example 4947],< 0.5 µM

# Reference: patent US9433621B2, “Substituted pyridine and pyrimidine derivatives and their use in treating viral infections” (Merck Sharp & Dohme Corp., priority 2010, dated 2016)
